The structures appear in SMILES notation.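 Each compound was tested at five concentrations against cells in 96-well plates for 48 hours. At the TGI there is no net growth.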

In PubChem BioAssay (NCI) one finds TGI data, which are given here for 28 molecules.

One experiment relates to SK-MEL-28 melanoma. Nature of the experiment: inhibition of tumour cell growth, NCI panel, 48 h.
The molecule `C[Si](C)(C)C1(Sc2ccccc2)SCCCS1` gave a TGI above 100 µM.

In turn, `OCc1ccc(-c2ccc(-c3ccc(CO)s3)o2)s1` displayed a TGI above 91.9 µM.

Molecule `c1ccc(COc2cccc3ccc[n+](Cc4ccccc4)c23)cc1` displayed a TGI of 25.4 µM.

In the case of `O=S1(=O)OCCOS(=O)(=O)C1Br`, the TGI is above 100 µM.

With `CCOC(=O)C(=C=C=C(c1ccccc1)c1ccccc1)C(=O)OCC`, the TGI worked out at 36.8 µM.

In turn, `CC1=CC(O)(c2ccc(-c3ccccc3Cl)cc2)OC1=O` (stereo unspecified) came in with a TGI above 100 µM.

`C/C(=N\NC(=S)NC(CCC(=O)O)C(=O)O)c1ccccn1` (stereo unspecified): the TGI was above 100 µM.

Molecule `C#CC1(O)CCC2C3CCc4cc(Oc5nc(F)nc(-c6c7ccccc7c7sc8ccccc8n67)n5)ccc4C3CC[C@@]21C` (stereo partly specified) had a TGI above 100 µM.

In turn, `Cc1ccc(NC(=O)c2cc3cc(N=Nc4ccccc4C(=O)O)ccc3oc2=O)cc1` yielded a TGI above 100 µM.

Regarding `CC(C)C(C)/C=C\C(C)C1CCC2C3=CC=C4CC(O)CCC4(C)C3CCC21C` (stereo unspecified), the TGI was above 60.5 µM.

Take `CC(=O)/C(=C\c1cccc([N+](=O)[O-])c1)C(=O)Nc1ccccc1C`: the TGI is above 100 µM.

In turn, `CCN1c2ccccc2C(C(SC)S(=O)(=O)c2ccc(C)cc2)c2c1[nH]c(=O)n(C)c2=O` (stereo unspecified) gave a TGI above 100 µM.

`COC(OC)C(C)CC(=O)N(C)C` (stereo unspecified) showed a TGI above 100 µM.

A further experiment concerns LXFL 529 NSCLC. Kind of experiment: inhibition of tumour cell growth, NCI panel, 48 h.
`O=c1cc(-c2ccccc2)oc2cc(OCCCOc3ccc4c(=O)cc(-c5ccccc5)oc4c3)ccc12` gave a TGI above 100 µM.

For the molecule `COc1cc2c(c(OC)c1OC)-c1ccc(OC)c(=O)cc1C(NC(=O)c1ccc(N=[N+]=[N-])cc1)CC2` (stereo unspecified), the TGI was above 47.2 µM.

`Clc1ccc(C(c2ccc(Cl)cc2)c2ccccn2)cc1`: the TGI is 35.3 µM.

The molecule `CC(C)=Cc1cc(C(=O)Nc2ccc(Cl)c(Cl)c2)nc(N)n1` registered a TGI above 100 µM.

For `Cn1cnc([N+](=O)[O-])c1Sc1nc2ccccc2[nH]1`, the TGI came out at 20.1 µM.

Molecule `CCCCCCN(CCCCCC)C(=O)Cc1c2n(c3ccccc13)Cc1ccccc1-2` registered a TGI above 100 µM.

Consider `CCCCCCCCC/C=C1\CCC(CN2CCOCC2)C1=O` (stereo unspecified), for which the TGI was determined as 2.95 µM.

`CC(=O)OC1COC(n2ccc3cc(Br)c([N+](=O)[O-])cc32)C(OC(C)=O)C1OC(C)=O` (stereo unspecified): the TGI was above 100 µM.

Molecule `CC(=O)OC1=CC(n2cc(F)c(=O)[nH]c2=O)OC(C)C1=O` (stereo unspecified) registered a TGI above 100 µM.

As to `CN(C)c1nc(=Nc2ccc(N=c3nc(N(C)C)ss3)cc2)ss1`, the TGI was above 52.1 µM.

The molecule `CSc1nc(NC2OCC(OC(C)=O)C(OC(C)=O)C2OC(C)=O)c(N=CC=Nc2c(NC3OCC(OC(C)=O)C(OC(C)=O)C3OC(C)=O)nc(SC)[nH]c2=O)c(=O)[nH]1` (stereo unspecified) registered a TGI above 100 µM.

`CCc1cc(Cc2cc(CC)c(NC(=O)C(=O)Cc3ccccn3)c(CC)c2Cl)c(Cl)c(CC)c1NC(=O)C(=O)Cc1ccccn1` displayed a TGI above 100 µM.

In the case of `C[Si](C)(C)C1(Sc2ccccc2)SCCCS1`, the TGI was above 100 µM.

The molecule `OCc1ccc(-c2ccc(-c3ccc(CO)s3)o2)s1` registered a TGI of 0.0435 µM.

With `c1ccc(COc2cccc3ccc[n+](Cc4ccccc4)c23)cc1`, the TGI was found to be 20.3 µM.

The molecule `O=S1(=O)OCCOS(=O)(=O)C1Br` came in with a TGI above 100 µM.

Take `CCOC(=O)C(=C=C=C(c1ccccc1)c1ccccc1)C(=O)OCC`: the TGI was determined as 31.4 µM.

As to `CC1=CC(O)(c2ccc(-c3ccccc3Cl)cc2)OC1=O` (stereo unspecified), the TGI was above 100 µM.

In turn, `C/C(=N\NC(=S)NC(CCC(=O)O)C(=O)O)c1ccccn1` (stereo unspecified) yielded a TGI above 100 µM.

Turning to `C#CC1(O)CCC2C3CCc4cc(Oc5nc(F)nc(-c6c7ccccc7c7sc8ccccc8n67)n5)ccc4C3CC[C@@]21C` (stereo partly specified), the TGI was above 100 µM.

The molecule `COc1ccc(S(=O)(=O)NNS(C)(=O)=O)cc1` displayed a TGI above 100 µM.

Consider `O=C(/C=C\c1ccc(Cl)c(Cl)c1)c1ccc(Cl)cc1Cl`, for which the TGI stood at 21.2 µM.

As to `CC(=O)/C(=C\c1cccc([N+](=O)[O-])c1)C(=O)Nc1ccccc1C`, the TGI was above 100 µM.

With `CCN1c2ccccc2C(C(SC)S(=O)(=O)c2ccc(C)cc2)c2c1[nH]c(=O)n(C)c2=O` (stereo unspecified), the TGI is above 100 µM.

As to `COC(OC)C(C)CC(=O)N(C)C` (stereo unspecified), the TGI was above 100 µM.

The next experiment deals with A549 NSCLC. Nature of the experiment: inhibition of tumour cell growth, NCI panel, 48 h.
The molecule `O=c1cc(-c2ccccc2)oc2cc(OCCCOc3ccc4c(=O)cc(-c5ccccc5)oc4c3)ccc12` showed a TGI above 100 µM.

In the case of `COc1cc2c(c(OC)c1OC)-c1ccc(OC)c(=O)cc1C(NC(=O)c1ccc(N=[N+]=[N-])cc1)CC2` (stereo unspecified), the TGI was above 100 µM.

`Clc1ccc(C(c2ccc(Cl)cc2)c2ccccn2)cc1`: the TGI worked out at 38.6 µM.

Turning to `CC(C)=Cc1cc(C(=O)Nc2ccc(Cl)c(Cl)c2)nc(N)n1`, the TGI is above 100 µM.

`Cn1cnc([N+](=O)[O-])c1Sc1nc2ccccc2[nH]1` yielded a TGI of 54 µM.

Turning to `CCCCCCN(CCCCCC)C(=O)Cc1c2n(c3ccccc13)Cc1ccccc1-2`, the TGI is above 100 µM.

`CCCCCCCCC/C=C1\CCC(CN2CCOCC2)C1=O` (stereo unspecified) gave a TGI of 34.7 µM.

`CC(=O)OC1COC(n2ccc3cc(Br)c([N+](=O)[O-])cc32)C(OC(C)=O)C1OC(C)=O` (stereo unspecified) gave a TGI of 92.3 µM.

Turning to `CC(=O)OC1=CC(n2cc(F)c(=O)[nH]c2=O)OC(C)C1=O` (stereo unspecified), the TGI was above 63.1 µM.

In turn, `CCOC(=O)NC(=O)c1cn(CCCO)c(=O)[nH]c1=O` registered a TGI above 100 µM.

`CN(C)c1nc(=Nc2ccc(N=c3nc(N(C)C)ss3)cc2)ss1` registered a TGI above 100 µM.

Regarding `CSc1nc(NC2OCC(OC(C)=O)C(OC(C)=O)C2OC(C)=O)c(N=CC=Nc2c(NC3OCC(OC(C)=O)C(OC(C)=O)C3OC(C)=O)nc(SC)[nH]c2=O)c(=O)[nH]1` (stereo unspecified), the TGI was above 100 µM.

For the molecule `CCc1cc(Cc2cc(CC)c(NC(=O)C(=O)Cc3ccccn3)c(CC)c2Cl)c(Cl)c(CC)c1NC(=O)C(=O)Cc1ccccn1`, the TGI was above 100 µM.

Molecule `C[Si](C)(C)C1(Sc2ccccc2)SCCCS1` returned a TGI above 100 µM.

In turn, `OCc1ccc(-c2ccc(-c3ccc(CO)s3)o2)s1` returned a TGI of 48.1 µM.

Take `c1ccc(COc2cccc3ccc[n+](Cc4ccccc4)c23)cc1`: the TGI is above 100 µM.

Consider `O=S1(=O)OCCOS(=O)(=O)C1Br`, for which the TGI was above 100 µM.

Regarding `CCOC(=O)C(=C=C=C(c1ccccc1)c1ccccc1)C(=O)OCC`, the TGI was found to be 74.5 µM.

`CC1=CC(O)(c2ccc(-c3ccccc3Cl)cc2)OC1=O` (stereo unspecified) displayed a TGI above 100 µM.

With `C/C(=N\NC(=S)NC(CCC(=O)O)C(=O)O)c1ccccn1` (stereo unspecified), the TGI is above 100 µM.

Molecule `C#CC1(O)CCC2C3CCc4cc(Oc5nc(F)nc(-c6c7ccccc7c7sc8ccccc8n67)n5)ccc4C3CC[C@@]21C` (stereo partly specified) returned a TGI above 100 µM.

Regarding `Cc1ccc(NC(=O)c2cc3cc(N=Nc4ccccc4C(=O)O)ccc3oc2=O)cc1`, the TGI is above 100 µM.

In turn, `COc1ccc(S(=O)(=O)NNS(C)(=O)=O)cc1` returned a TGI above 100 µM.

Turning to `O=C(/C=C\c1ccc(Cl)c(Cl)c1)c1ccc(Cl)cc1Cl`, the TGI stood at 60.7 µM.

For the molecule `CC(C)C(C)/C=C\C(C)C1CCC2C3=CC=C4CC(O)CCC4(C)C3CCC21C` (stereo unspecified), the TGI is above 100 µM.

For `CC(=O)/C(=C\c1cccc([N+](=O)[O-])c1)C(=O)Nc1ccccc1C`, the TGI is above 100 µM.

On to `CCN1c2ccccc2C(C(SC)S(=O)(=O)c2ccc(C)cc2)c2c1[nH]c(=O)n(C)c2=O` (stereo unspecified), for which the TGI is above 100 µM.

`COC(OC)C(C)CC(=O)N(C)C` (stereo unspecified): the TGI was above 100 µM.
